Consider one molecule from patent US10542747B2, “Plant irrigation methods with 1-MCP” (Syngenta Participations AG, priority 2010, dated 2020).

Data set [1] concerns 5-6 leaf tomato plants (var. Rutgers). Put plainly: Tomato epinasty test (Cerone/ethephon challenge). The format is in vivo. The conditions noted are these: average of 8 plants.
For data set [2] the following is noted: cited from earlier work.
The subject of data set [3] is 5-6 leaf tomato plants (var. Rutgers). The data set is described as follows: Tomato epinasty test (Cerone/ethephon challenge). It is filed as in vivo. The conditions noted are these: 200 l/ha, average of 8 plants. The protocol:
Bioassay test material: 5-6 leaf tomato plants (var. Rutgers), 8 reps/treatment.
The first column of table 1 provides a summary of change in angle of the 3rd leaf petiole at 24 hours after application of Cerone (ethephon). There are two sets of data, one for those challenged with Cerone at 4 hours after 1-MCP formulation application and a second set for plants challenged with Cerone at 24 hrs after 1-MCP formulation application. Data are the averages of 8 replicate plants
Procedures Used for Epinasty Test:
1-MCP formulation and rates: 1-MCP in the form of an α-cyclodextrin molecularly encapsulated powder dispersed in an aqueous MgSO4 solution
Standard foliar spray at 200 l/ha and 0.035% v/v kinetic silicon adjuvant 0, 10 and 20 g ai/ha
Application rate 500 g ai/ha at 400 l/ha application volume
Application at 4 and 24 HAA of Invinsa
Angle of 3rd petiole to plants stem measured prior to 1-MCP application and again at 24 HAT Final data expressed as average change in 3rd petiole angle

Data set [4] concerns Wheat plants, variety ARINA. The data set is described as follows: Effect of 1-MCP on stressed wheat plants grown in pouches (drought stress). It is filed as in vivo. The conditions noted are these: 200 ppm in the pouch water at day 8; 5 days without watering at 26° C.; FIG. 1. As to the method:
FIG. 1 illustrates wheat plants grown in pouches. On the right-hand side plants treated with 1-MCP and on the left-hand side non treated check plants.
10 mL of the mixture are added per pouch with a pipette.
20 to 25 Wheat kernels from the variety ARINA were sown in a plastic bag (pouch) with an absorbent paper, watered and grown under optimal conditions in a climate chamber for 8 days. At day 8 the 1-MCP in the form of an α-cyclodextrin molecularly encapsulated powder was applied at a 200 ppm rate to the water in the pouch. After application the plants were not watered anymore, but placed in a warm environment at 26° C. After 5 days without watering the differences of treated vs. untreated were evaluated visually (FIG. 1).

`CC1=CC1` [1-MCP, 1-methylcyclopropene]: the “Average change in angle of third petiole” value in data set [1] (1 g ai/ha chemigation, Cerone applied 4 HAA 1-MCP) is reported as 60; in data set [1] (1 g ai/ha chemigation, Cerone applied 24 HAA 1-MCP) it was 78; in data set [1] (10 g ai/ha chemigation, Cerone applied 4 HAA 1-MCP), 20; in data set [1] (10 g ai/ha chemigation, Cerone applied 24 HAA 1-MCP) it was 48; in data set [1] (20 g ai/ha chemigation, Cerone applied 4 HAA 1-MCP), −9; in data set [1] (20 g ai/ha chemigation, Cerone applied 24 HAA 1-MCP), 41. In addition, the “Average change in angle of third petiole” value in data set [1] (>20 g ai/ha chemigation (incorrect pump calibration), Cerone applied 4 HAA 1-MCP) is −4; in data set [1] (>20 g ai/ha chemigation (incorrect pump calibration), Cerone applied 24 HAA 1-MCP) it was 18; in data set [3] (10 g ai/ha foliar spray, Cerone applied 4 HAA 1-MCP), 71; in data set [3] (10 g ai/ha foliar spray, Cerone applied 24 HAA 1-MCP), 82; in data set [3] (20 g ai/ha foliar spray, Cerone applied 4 HAA 1-MCP), 40; in data set [3] (20 g ai/ha foliar spray, Cerone applied 24 HAA 1-MCP), 86. In addition, the water-solubility in data set [2] was 137 mg I−1. In addition, in data set [4], the “drought tolerance of treated vs. untreated plants, evaluated visually” value is “greater drought tolerance than control plants”.
